This passage reports IC50 results from patent publication US4851519A, “Pyrimidine derivatives” (Hoffmann-La Roche Inc., priority 1986, dated 1989).

SMILES strings stand for the structures.

For one assay, the target named is herpes simplex virus type 2 (HSV-2) thymidine kinase (Human herpesvirus 2, UniProt P04407). The assay is described as follows: inhibition of herpes simplex virus type 2 (HSV-2) thymidine kinase in vitro. It is filed as biochemical.
Sequence of herpes simplex virus type 2 (HSV-2) thymidine kinase (P04407 whole entry): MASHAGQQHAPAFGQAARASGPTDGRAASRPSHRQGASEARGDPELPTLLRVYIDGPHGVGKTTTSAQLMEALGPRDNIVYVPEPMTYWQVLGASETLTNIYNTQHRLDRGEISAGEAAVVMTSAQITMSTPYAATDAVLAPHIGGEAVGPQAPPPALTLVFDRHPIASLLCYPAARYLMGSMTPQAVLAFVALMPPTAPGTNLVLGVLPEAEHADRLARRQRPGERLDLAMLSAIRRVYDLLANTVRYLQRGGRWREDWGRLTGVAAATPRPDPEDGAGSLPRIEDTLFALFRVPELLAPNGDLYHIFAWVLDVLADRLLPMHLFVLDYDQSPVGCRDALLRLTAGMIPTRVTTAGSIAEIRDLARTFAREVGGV
Conditions: not given
The protocol: In this test, the assay mixture contains […] Tris-HCl, pH 8, 5 mM magnesium chloride, 5 mM ATP, 0.3 μM ^3 H-thymidine (50 Ci/mmol), suitably diluted thymidine kinase extract and various concentrations of a compound of formula I or a tautomer thereof in a total volume of 100 μl. Assays are incubated at 37° C. for 30 minutes and the reaction is terminated by immersion in a boiling water bath for 2 minutes. 85 μl aliquots from each assay are then dried on to DEAE-cellulose paper discs and the unphosphorylated ^3 H-thymidine is removed by washing in 4 mM ammonium formate. The radioactivity remaining bound to the discs is then measured by scintillation spectrophotometry. The degree of inhibition at each concentration of compound of formula I or tautomer thereof is expressed as a percentage of the control reaction (100%) after substracting a measured blank value which represents the amount of radioactivity bound to the disc from a reaction containing heat inactivated enzymes. the IC50 value, namely, the concentration of compound of formula I or tautomer thereof which inhibits enzyme activity by 50%, is then calculated. The results obtained with representative compounds of formula I are complied in the following Table: […]
Take `CCc1cn([C@H]2C[C@H](O)[C@@H](CNC(=O)Cc3c(Cl)cccc3Cl)O2)c(=O)[nH]c1=O` [Compound B, 5'-[2-(2,6-dichlorophenyl)acetamido]-2',5'-dideoxy-5-ethyluridine]: the IC50 amounted to 3 nM.

Still in this assay, the particulars now being: HSV-2 thymidine kinase extract; 0.3 μM 3H-thymidine, 5 mM ATP, pH 8, 37° C., 30 minutes; read-out: IC50 (concentration which inhibits enzyme activity by 50%).
Regarding `CCc1cn([C@H]2C[C@H](O)[C@@H](CNC(=O)Cc3ccccc3Br)O2)c(=O)[nH]c1=O` [Compound A, 5'-[2-(2-bromophenyl)acetamido]-2',5'-dideoxy-5-ethyluridine], the IC50 was found to be 20 nM.

In the case of `CCc1cn([C@H]2C[C@H](O)[C@@H](CNC(=O)C(C)Oc3ccc(Cl)cc3[N+](=O)[O-])O2)c(=O)[nH]c1=O` (mixture of isomers) [Compound H, 5'-[2(RS)-(4-chloro-2-nitrophenoxy)propionamido]-2',5'-dideoxy-5-ethyluridine], the IC50 is 2.7 nM.

`CCc1cn([C@H]2C[C@H](O)[C@@H](CNC(=O)C(C)Oc3cc(Cl)c(Cl)cc3Cl)O2)c(=O)[nH]c1=O` (mixture of isomers) [Compound G, 5'-[2(RS)-(2,4,5-trichlorophenoxy)propionamido]-2',5'-dideoxy-5-ethyluridine]: the IC50 turned out to be 1.3 nM.

On to `CCc1cn([C@H]2C[C@H](O)[C@@H](CNC(=O)C(C)Oc3ccc(Cl)cc3Cl)O2)c(=O)[nH]c1=O` (mixture of isomers) [Compound C, 5'-[2(RS)-(2,4-dichlorophenoxy)propionamido]-2',5'-dideoxy-5-ethyluridine], for which the IC50 was 3.7 nM.

Regarding `CCc1cn([C@H]2C[C@H](O)[C@@H](CNC(=O)C(Oc3ccc(Cl)cc3Cl)c3ccccc3)O2)c(=O)[nH]c1=O` (mixture of isomers) [Compound I, 5'-[2(RS)-(2,4-dichlorophenoxy)-2-phenylacetamido]-2',5'-dideoxy-5-ethyluridine], the IC50 was 4.7 nM.

Turning to `CCc1cn([C@@H]2O[C@H](CNC(=O)C(C)Oc3ccc(Cl)cc3Cl)[C@@H](O)[C@@H]2F)c(=O)[nH]c1=O` (mixture of isomers) [Compound F, 1-[5-[2-(RS)-(2,4-dichlorophenoxy)propionamido]-2,5-dideoxy-2-fluoro-β-D-arabinofuranosyl]-5-ethyluracil], the IC50 is 4 nM.

As for `CCc1cn([C@H]2C[C@H](O)[C@@H](CNC(=O)C(C)Oc3cc(OC)c(Cl)cc3Cl)O2)c(=O)[nH]c1=O` (mixture of isomers) [Compound J, 5'-[2(RS)-(2,4-dichloro-5-methoxyphenoxy)propionamido]-2',5'-dideoxy-5-ethyluridine], the IC50 amounted to 1.2 nM.

Consider `CCCc1cn([C@H]2C[C@H](O)[C@@H](CNC(=O)C(C)Oc3ccc(Cl)cc3Cl)O2)c(=O)[nH]c1=O` (mixture of isomers) [Compound K, 5'-[2(RS)-(2,4-dichlorophenoxy)propionamido]-2',5'-dideoxy-5-propyluridine], for which the IC50 is 3.5 nM.

As for `CCc1cn([C@H]2C[C@H](O)[C@@H](CNC(=O)C(C)Oc3ccccc3-c3ccccc3)O2)c(=O)[nH]c1=O` (mixture of isomers) [Compound E, 2',5'-dideoxy-5-ethyl-5'-[2(RS)-(2-phenylphenoxy)propionamido]uridine], the IC50 was determined as 5 nM.

`CCc1cn([C@H]2C[C@H](O)[C@@H](CNC(=O)Cc3ccc(-c4ccccc4)cc3)O2)c(=O)[nH]c1=O` [Compound D, 5'-[2-(4-biphenylyl)acetamido]-2',5'-dideoxy-5-ethyluridine]: the IC50 stood at 70 nM.
